Experimental data as given in PubChem BioAssay (NCI).
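Method: 48-hour compound exposure of cells in 96-well plates, five concentrations, linear interpolation of endpoints. TGI marks complete inhibition of growth.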

What was measured:
Assay in all cases: inhibition of tumour cell growth, NCI panel, 48 h
A549 NSCLC = system: A549 NSCLC
DLD-1 colon = system: DLD-1 colon
EKVX NSCLC = system: EKVX NSCLC
HCC-2998 colon = system: HCC-2998 colon
HCT-116 colon = system: HCT-116 colon
HT29 colon = system: HT29 colon
IGROV1 ovarian = system: IGROV1 ovarian
K-562 leukemia = system: K-562 leukemia
KM12 colon = system: KM12 colon
LXFL 529 NSCLC = system: LXFL 529 NSCLC
M19-MEL melanoma = system: M19-MEL melanoma
NCI-H226 lung = system: NCI-H226 lung
NCI-H23 lung = system: NCI-H23 lung
NCI-H522 lung = system: NCI-H522 lung
OVCAR-4 ovarian = system: OVCAR-4 ovarian
SF-539 CNS = system: SF-539 CNS
SN12C renal = system: SN12C renal
SW-620 colon = system: SW-620 colon
TK-10 renal = system: TK-10 renal
UO-31 renal = system: UO-31 renal

Measured: TGI

Cc1ccc2c(=O)c3ccccc3sc2c1
> 100 µM: all assays above
